Laboratory results as given in patent US8993247B2, “Assay for vascular calcification” (King's College London, priority 2010, dated 2015).

What was measured:
[1] = test system: human smooth muscle cells; format: cell-based
Protocol: A—VSMCs were incubated in the absence or presence of high Ca/P (2.5 mM Ca and 2.5 mM P) in 2% FBS/M199 media for 5 days and subjected to alizarin D staining Quantification shown graphically in B. Mean±SD, n=3. C—pictures of VSMCs were taken using light microscopy of alizarin-D stained VSMCs. 1.5—BSA control; 2.6−+5 mM GW4869; 3.7−+1.3% DSMO; 4.8−+1 uM Y-27632.

[2] = test system: VSMCs
Protocol: A—apoptosis of VSMCs in the presence of GW4869 as detected by AnnexinV-FITC binding VSMC were treated with 5 mM GW4869 in the absence or presence of high Ca/P and the level of apoptosis was determined by phospahtidylserine externalization.
VSMCs were cultured in the presence or absence of GW4869 and with or without high Ca and P in the media containing 2% serum for 5 days.
We therefore compared an effect of GW4869 on cell survival in the presence of raised extracellular concentrations of Ca and P in the media containing 2% serum.

[3] = test system: human smooth muscle cells; assay: Matrix vesicle release by VSMCs (western blot of CD63 and Fetuin A in MV lysates, CD63 densitometry); format: cell-based; conditions: matrix vesicle markers CD63 and Fetuin A in MV lysates, n=3
Protocol: Panel B, quantification of matrix vesicle release by VSMCs was performed using densitometry analysis of CD63, presented in MV as defined by western-blot analysis (shown in A). Mean±SD, n=3.

| SMILES | calcification of VSMCs ([1]; high Ca/P (2.5 mM Ca and 2.5 mM P), media with 2% serum, 5 days, 5 mM GW4869, 1 uM Y-27632) | number of VSMCs in wells [1] | apoptosis of GW4869-treated VSMCs with high Ca and P compared with without [2] | matrix vesicles release by human smooth muscle cells [3] |
| --- | --- | --- | --- | --- |
| C[C@@H](N)[C@H]1CC[C@H](C(=O)Nc2ccncc2)CC1 [Y 27632] | had no effect | – | – | – |
| Cl.Cl.O=C(/C=C/c1ccc(/C=C/C(=O)Nc2ccc(C3=NCCN3)cc2)cc1)Nc1ccc(C2=NCCN2)cc1 [GW4869] | – | dramatic reduction in the number of VSMCs | not increased | inhibition of matrix vesicles release |
